In paper PMC11329504, “Identification of novel small molecule-based strategies of COL7A1 upregulation and readthrough activity for the treatment of recessive dystrophic epidermolysis bullosa” (Scientific Reports, 2024):

Assays:
JAK2 = JAK2 (Homo sapiens, UniProt O60674); assay: Enzymatic JAK2 kinase activity; format: biochemical; settings: dose-response curves; read-out: IC50 ± SD, JAK2
Description: (§1) Enzymatic Syk kinase activity assays were performed as previously described. Enzymatic activity of JAK1, JAK2, JAK3, and Tyk kinases was evaluated as previously described.

JAK1 = JAK1 (Homo sapiens, UniProt P23458); assay: Enzymatic JAK1 kinase activity; format: biochemical; settings: dose-response curves; read-out: IC50 ± SD, JAK1
JAK1, sequence (P23458 whole entry, species assumed): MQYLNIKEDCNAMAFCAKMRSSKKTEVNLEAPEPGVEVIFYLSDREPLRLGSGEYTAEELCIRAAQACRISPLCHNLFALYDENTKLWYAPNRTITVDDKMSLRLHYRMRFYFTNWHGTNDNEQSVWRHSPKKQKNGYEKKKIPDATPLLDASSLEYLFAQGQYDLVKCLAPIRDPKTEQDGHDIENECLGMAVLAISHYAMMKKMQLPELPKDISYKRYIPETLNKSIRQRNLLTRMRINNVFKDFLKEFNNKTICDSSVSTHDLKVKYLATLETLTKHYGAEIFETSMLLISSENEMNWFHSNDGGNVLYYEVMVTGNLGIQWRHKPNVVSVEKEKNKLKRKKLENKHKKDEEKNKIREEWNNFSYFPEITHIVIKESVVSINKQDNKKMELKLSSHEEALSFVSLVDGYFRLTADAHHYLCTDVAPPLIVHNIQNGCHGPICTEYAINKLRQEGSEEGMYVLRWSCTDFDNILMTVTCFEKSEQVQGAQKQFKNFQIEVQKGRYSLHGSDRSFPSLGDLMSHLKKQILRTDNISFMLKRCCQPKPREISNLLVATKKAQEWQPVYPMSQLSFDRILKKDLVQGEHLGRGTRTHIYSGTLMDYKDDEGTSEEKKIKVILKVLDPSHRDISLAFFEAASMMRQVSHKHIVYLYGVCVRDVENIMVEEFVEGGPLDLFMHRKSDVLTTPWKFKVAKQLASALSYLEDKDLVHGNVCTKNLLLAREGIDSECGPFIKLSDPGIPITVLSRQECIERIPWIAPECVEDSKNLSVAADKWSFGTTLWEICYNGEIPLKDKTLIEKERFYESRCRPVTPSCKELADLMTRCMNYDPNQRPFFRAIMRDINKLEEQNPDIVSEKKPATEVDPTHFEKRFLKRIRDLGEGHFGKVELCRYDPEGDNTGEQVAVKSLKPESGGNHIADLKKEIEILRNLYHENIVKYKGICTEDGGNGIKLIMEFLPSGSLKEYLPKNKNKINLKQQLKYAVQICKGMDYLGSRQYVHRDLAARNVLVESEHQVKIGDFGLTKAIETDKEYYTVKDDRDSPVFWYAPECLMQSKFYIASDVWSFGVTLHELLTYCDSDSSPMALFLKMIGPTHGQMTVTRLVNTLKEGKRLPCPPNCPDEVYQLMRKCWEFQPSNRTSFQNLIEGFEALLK
Description: as §1

JAK3 = target: T1, JAK3 (Homo sapiens, UniProt P52333); assay: Enzymatic JAK3 kinase activity; format: biochemical; settings: dose-response curves; read-out: IC50 ± SD, JAK3
T1 sequence (P52333 1-1124): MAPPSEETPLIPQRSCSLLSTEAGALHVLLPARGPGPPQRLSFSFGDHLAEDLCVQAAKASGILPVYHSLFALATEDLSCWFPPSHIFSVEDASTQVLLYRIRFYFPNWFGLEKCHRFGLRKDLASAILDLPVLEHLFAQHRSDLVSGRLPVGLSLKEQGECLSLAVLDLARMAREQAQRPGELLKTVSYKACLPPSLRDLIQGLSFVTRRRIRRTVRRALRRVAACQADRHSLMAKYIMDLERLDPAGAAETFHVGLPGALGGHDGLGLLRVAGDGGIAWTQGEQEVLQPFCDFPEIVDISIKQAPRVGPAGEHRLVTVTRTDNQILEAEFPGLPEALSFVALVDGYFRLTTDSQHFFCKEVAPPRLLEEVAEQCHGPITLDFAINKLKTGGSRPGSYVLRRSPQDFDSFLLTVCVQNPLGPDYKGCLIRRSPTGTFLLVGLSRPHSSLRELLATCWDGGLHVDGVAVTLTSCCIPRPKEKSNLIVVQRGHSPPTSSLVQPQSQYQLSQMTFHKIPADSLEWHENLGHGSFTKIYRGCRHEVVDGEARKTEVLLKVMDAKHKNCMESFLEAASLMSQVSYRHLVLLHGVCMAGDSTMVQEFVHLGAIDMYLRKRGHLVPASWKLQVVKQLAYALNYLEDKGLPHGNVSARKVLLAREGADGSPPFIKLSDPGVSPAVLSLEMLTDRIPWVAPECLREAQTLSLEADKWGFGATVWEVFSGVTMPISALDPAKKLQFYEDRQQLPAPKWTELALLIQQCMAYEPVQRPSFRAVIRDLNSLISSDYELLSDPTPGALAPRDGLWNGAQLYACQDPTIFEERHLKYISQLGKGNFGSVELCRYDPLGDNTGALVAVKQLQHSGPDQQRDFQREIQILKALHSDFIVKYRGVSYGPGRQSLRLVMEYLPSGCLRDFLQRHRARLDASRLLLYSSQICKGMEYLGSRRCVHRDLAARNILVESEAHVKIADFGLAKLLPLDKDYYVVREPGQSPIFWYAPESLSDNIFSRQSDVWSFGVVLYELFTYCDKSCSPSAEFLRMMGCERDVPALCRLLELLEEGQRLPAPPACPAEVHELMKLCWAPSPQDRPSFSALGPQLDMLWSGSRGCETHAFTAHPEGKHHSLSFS
Description: as §1

[1] = test system: total C7 in HEK293^R578X cells; assay: AlphaLISA quantification of total C7 in recombinant HEK293^R578X cells; format: cell-based, human; settings: for EC50: Homo sapiens, total C7 AlphaLISA, 48 h, relative EC50, mean ± SD, read-out: Increase in C7 levels EC50
Description: The AlphaLISA assay was developed in-house by using the biotin-conjugated rabbit polyclonal antibody anti-C7 (LSBio LS-298147) and conjugating the acceptor beads (PerkinElmer 6772001) to a monoclonal anti-Collagen type VII antibody produced in mouse, clone LH7.2 (Thermo MA5-13,432). Formulation of the mAb clone LH7.2 was exchanged to PBS and concentrated 5 × by using Amicon® Ultra-0.5 centrifugal filters up to 1 mg/ml. The conjugation procedure was carried out according to the protocol provided by PerkinElmer.
For compound treatment in RDEB patient-derived transformed keratinocytes, 5,000 cells were plated in 20 µL of supplemented KGM media containing 20 ng/mL TGFβ2 (SIGMA GF113) without GA-1000 in 384-well cell culture plates (Greiner 781098). The day after, 5 µL of test compounds prepared 5 × in supplemented KGM without GA-1000 were added over cells and incubated for 48 h at 37 °C and 5% CO2. For compound treatment in HEK293^R578X, 10,000 cells were plated in 20 μL of DMEM (High Glucose, 2 mM L-Glutamine, sodium pyruvate, and FBS 10%) in 384-well cell culture plates (Greiner 781,098,). The day after, 5 μL of test compounds prepared 5 × in DMEM complete medium were added over cells and incubated for 48 h at 37 °C and 5% CO2.
After the treatment process, 2.5 µL of RIPA buffer 10 x (Abcam ab156034) were added over the […] of cells for 20 min at room temperature to obtain a complete cell lysis. Then, 2 μL of sample (i.e., cell lysate with supernatant) were transferred to the AlphaLISA plate (PerkinElmer 6,059,340) containing […] of antibodies mixture ([…] of acceptor Beads-Ab and […] of biotin-rAb) prepared in AlphaLISA buffer 1 x (PerkinElmer AL00F). The reaction was incubated for 90 min at room temperature. Finally, 10 μL of […] of donor beads (PerkinElmer 6760002,) were added to the reaction under subdued light, mixed gently, and incubated for 3 h at room temperature. AlphaLISA signal was detected with an Envision microplate reader (Perkin Elmer) using the following setting: Filter: AlphaScreen, Excitation time: 180 ms, Integration time: 300 ms.
Statistical analyses were performed using GraphPad Prism v. 7.04 (La Jolla, California). Results are shown as mean ± SD of experimental replicates. Dose–response curves to assess compound treatment effect were plotted in a four-parameter logistic model. Relative EC50, representing the total drug concentration producing a 50% effect, was calculated in the four-parameter logistic equation. Comparisons of collagen protein and mRNA expression in different experimental conditions were made using ANOVA, followed by a post hoc test. statistical significance was considered with p values < 0.05.

Kappa (KOP) = assay: Selectivity panel (Eurofins): Kappa (KOP); format: binding; settings: n = 1, duplicate
Description: (§2) Selectivity was evaluated at Eurofins Pharma Discovery Services at 3 µM, 10 µM, and 30 µM in duplicate using a selection of 84 representative kinases and 44 GPCRs, transporters, nuclear receptors (NR), enzymes, and ion channels.

BZD = assay: Selectivity panel (Eurofins): benzodiazepine receptor BZD; format: binding; settings: for % inhibition, BZD: n = 1, duplicate
Dopamine transporter = target: T2, Dopamine transporter (Homo sapiens, UniProt Q01959); assay: Selectivity panel (Eurofins): dopamine transporter; format: binding; settings: n = 1, duplicate
T2 construct: Eurofins Pharma Discovery Services
T2 sequence (Q01959 whole entry): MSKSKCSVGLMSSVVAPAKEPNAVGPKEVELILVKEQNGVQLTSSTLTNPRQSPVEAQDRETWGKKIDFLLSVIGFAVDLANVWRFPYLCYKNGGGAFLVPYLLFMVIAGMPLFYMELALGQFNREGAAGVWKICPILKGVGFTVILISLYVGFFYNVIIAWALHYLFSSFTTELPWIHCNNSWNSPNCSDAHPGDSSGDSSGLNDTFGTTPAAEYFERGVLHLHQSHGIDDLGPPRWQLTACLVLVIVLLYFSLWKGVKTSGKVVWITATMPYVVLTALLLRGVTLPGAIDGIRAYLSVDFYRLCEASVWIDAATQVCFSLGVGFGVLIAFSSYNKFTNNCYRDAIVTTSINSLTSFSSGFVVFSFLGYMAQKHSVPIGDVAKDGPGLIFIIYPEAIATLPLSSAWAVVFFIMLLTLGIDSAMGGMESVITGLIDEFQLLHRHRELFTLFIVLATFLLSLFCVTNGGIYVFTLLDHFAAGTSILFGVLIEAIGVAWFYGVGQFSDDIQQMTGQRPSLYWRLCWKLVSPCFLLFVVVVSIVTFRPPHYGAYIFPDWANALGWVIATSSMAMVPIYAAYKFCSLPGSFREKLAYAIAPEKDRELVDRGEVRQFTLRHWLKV
Description: as §2

JAK2, sequence (O60674 whole entry, species assumed): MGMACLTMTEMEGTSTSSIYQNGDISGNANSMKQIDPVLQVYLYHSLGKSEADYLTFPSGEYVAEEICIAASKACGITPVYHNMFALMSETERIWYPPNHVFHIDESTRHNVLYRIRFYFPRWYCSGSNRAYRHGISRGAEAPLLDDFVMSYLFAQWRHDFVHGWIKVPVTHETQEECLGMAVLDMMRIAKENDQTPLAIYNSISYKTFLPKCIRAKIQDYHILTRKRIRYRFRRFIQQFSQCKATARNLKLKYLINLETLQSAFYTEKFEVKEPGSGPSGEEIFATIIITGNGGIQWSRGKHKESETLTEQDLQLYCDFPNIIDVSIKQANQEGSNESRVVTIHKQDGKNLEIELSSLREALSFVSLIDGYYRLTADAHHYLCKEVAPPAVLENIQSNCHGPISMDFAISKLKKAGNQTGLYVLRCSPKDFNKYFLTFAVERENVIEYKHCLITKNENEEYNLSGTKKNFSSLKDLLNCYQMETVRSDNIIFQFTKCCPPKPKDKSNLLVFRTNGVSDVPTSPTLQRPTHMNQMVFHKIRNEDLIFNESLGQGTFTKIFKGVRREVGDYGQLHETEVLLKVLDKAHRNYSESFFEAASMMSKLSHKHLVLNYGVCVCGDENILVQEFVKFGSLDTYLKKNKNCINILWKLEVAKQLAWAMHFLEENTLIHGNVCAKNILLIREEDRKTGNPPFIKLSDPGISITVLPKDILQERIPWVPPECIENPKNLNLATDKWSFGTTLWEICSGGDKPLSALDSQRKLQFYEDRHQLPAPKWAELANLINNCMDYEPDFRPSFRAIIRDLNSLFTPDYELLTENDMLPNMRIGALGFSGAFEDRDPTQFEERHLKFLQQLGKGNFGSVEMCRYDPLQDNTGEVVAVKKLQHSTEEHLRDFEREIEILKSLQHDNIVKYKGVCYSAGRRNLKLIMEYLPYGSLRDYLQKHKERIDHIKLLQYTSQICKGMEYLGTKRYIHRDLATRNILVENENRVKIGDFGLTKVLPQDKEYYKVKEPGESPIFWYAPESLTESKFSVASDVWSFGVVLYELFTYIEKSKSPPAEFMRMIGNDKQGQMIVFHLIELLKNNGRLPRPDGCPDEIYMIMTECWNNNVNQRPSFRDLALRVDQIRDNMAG

Compound	IC50 (JAK2)	IC50 (JAK1)	IC50 (JAK3)	EC50 [1]	Increase in C7 levels Emax, % vs baseline ([1]; at 100 µM)	% inhibition, Kappa (KOP) (Kappa (KOP); at 3 μM)	% inhibition, Kappa (KOP) (Kappa (KOP); at 10 μM)	% inhibition, Kappa (KOP) (Kappa (KOP); at 30 μM)	% inhibition, BZD (BZD; at 3 μM)	% inhibition, BZD (BZD; at 10 μM)	% inhibition, BZD (BZD; at 30 μM)	antagonism/inhibition of benzodiazepine receptor BZD (BZD; at concentrations of 3 and 10 µM)	inhibition at 3 µM (Dopamine transporter; at 3 μM)	inhibition at 10 µM (Dopamine transporter; at 10 μM)	inhibition at 30 µM (Dopamine transporter; at 30 μM)	Increase in C7 levels Emax, % vs baseline ([1]; at 4100 µM)
NC(=O)Cn1ccc2ccc(-c3cnc(N)c(C(=O)NC4C5CC6CC4CC(O)(C6)C5)n3)cc21 (centres unmarked) [Compound 1]	0.12 ± 0.06 µM	0.44 ± 0.16 µM	0.06 ± 0.006 µM	–	–	–	–	–	–	–	–	–	–	–	–	–
C#Cc1cc(-c2ccncc2)c(-c2cccc(F)c2)nc1N [Compound 7]	–	–	–	60 ± 4.6 µM	96 ± 35 at 100 % vs baseline	12%	32%	54%	48%	73%	88%	≥ 50%	17%	40%	64%	–
CNC(C)C1CCC(N)C(OC2C(N)CC(N)C(OC3OCC(C)(O)C(NC)C3O)C2O)O1 (centres unmarked) [Gentamicin, reference compound]	–	–	–	4500 ± 2900 µM	–	–	–	–	–	–	–	–	–	–	–	89 ± 17 at 4100 % vs baseline
